# Assay results from PubChem BioAssay (NCI).
# “And” between values parts separate entries of the source, which are not always exact repeats. Equal values may be shown once.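 Following 48 hours of exposure in 96-well plates, responses at five concentrations were used to interpolate endpoints linearly. GI50: concentration for 50% inhibition of growth. Definition used: TGI = concentration required for complete inhibition of growth.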
# Tests used:
# Test in all cases: NCI tumour cell line growth inhibition, 48 h
# [1] = tested on: T-47D breast
# [2] = tested on: PC-3 prostate
# [3] = tested on: MDA-MB-435
# [4] = tested on: LXFL 529 NSCLC
# [5] = tested on: KM20L2 colon
# [6] = tested on: DMS 114 small cell lung
# [7] = tested on: MDA-N
Structure (SMILES),GI50 [1],TGI [1],GI50 [2],TGI [2],GI50 [3],TGI [3],TGI [4] [µM],TGI [5] [µM],TGI [6] [µM],TGI [7] [µM],GI50 [7] [µM]
Fc1ccc2[nH]c3c(NCCCN4CCOCC4)ncnc3c2c1,35.7 µM,> 100 µM,65.7 µM,> 100 µM,51 µM,> 100 µM,,,,,
NNC(=O)CCC(=O)NC1C2CC3CC(C2)CC1C3 (configuration not stated),,,,,,,> 100,> 100,> 100,,
CC[C@H](CC#N)OC(=O)N[C@@H](C)c1cccc(NC(=O)Nc2ccc(-c3cnco3)c(OC)c2)c1,0.165 µM,21.4 µM,0.0741 µM,31.4 µM,0.0498 µM,29 µM,,,,,
CC(=O)OCC1OC(n2ccc(=O)[nH]c2=O)C(OC(C)=O)C1OC(C)=O (configuration not stated),> 100 µM,> 100 µM,> 100 µM,> 100 µM,> 100 µM,> 100 µM,,,,,
Clc1nc(Cl)c2c(ncn2C/C=C\Cn2cnc3c(Cl)nc(Cl)nc32)n1,1.32 µM,3.06 µM,2.31 µM,5.58 µM,1.93 µM,4.51 µM,,,,,
CO/N=C(\C)c1ccc(Nc2cc(-c3ccccc3)nc3c(O)cccc23)cc1,9.07 µM,27.8 µM,13.7 µM,35 µM,15.5 µM,30.9 µM,,,,,
CC(C)NC(=O)OCCS(=O)c1c(Cl)c(Cl)nn1C (configuration not stated),,> 100 µM,,> 100 µM,,56.3 µM,,,,> 100,
Oc1ccc(CCCCCCc2ccc(O)cc2)cc1,8.03 µM,27.2 µM,9.87 µM,27.5 µM,11.8 µM,26.9 µM,,,,,
CCCCCCCCCCCC[n+]1ccc(CCCCCCCCC)cc1,0.28 µM,1.54 µM,0.597 µM,1.93 µM,,,,,,,
Nc1cc(N)c(N)cc1N,4.57 µM,24.5 µM,3.1 µM,> 100 µM,0.296 µM,0.851 µM,,,,,
C=C(C)C(=O)O[C@H]1[C@H]2[C@H](OC(=O)[C@H]2C)[C@H](O)[C@@H](C)[C@@H]2C=CC(=O)[C@]21C,,12.5 µM,,18.5 µM,,7.28 µM,,,,7.68,
N#CC(C(=O)C(=O)NCCCNC(=O)C(=O)C(C#N)c1ccccc1)c1ccccc1 (configuration not stated),,,,,,,> 100,> 100,> 100,,
Clc1nc(Cl)c2ncn(Cc3ccc(COc4cccc(OCc5ccc(Cn6cnc7c(Cl)nc(Cl)nc76)cc5)c4)cc3)c2n1,21.5 µM,> 100 µM,24.1 µM,> 100 µM,26.7 µM,> 100 µM,,,,,
CC12CCC(=O)C=C1CCC1C2C(O)CC2(C)C(c3csc(N)n3)CCC12 (configuration not stated),,> 100 µM,,> 100 µM,,> 100 µM,,,,> 100,
CCCCn1cnc2c(SC)ncnc21,,> 100 µM,,> 100 µM,,> 100 µM,,,,> 100,
COc1ccc2c(c1)OC(N(C(C)=O)C(C)=O)=C(C#N)C2c1ccc(F)cc1 (configuration not stated),4.98 µM,> 100 µM,2.2 µM,> 100 µM,,,,,,,
CC(CNC(Cc1ccccc1)c1ccccc1)NC(Cc1ccccc1)c1ccccc1 (configuration not stated),1.96 µM,4.95 µM,2.3 µM,6.42 µM,2.1 µM,4.99 µM,,,,,
C[C@H]1[C@H](C)CC[C@]2(C(=O)O)CC[C@]3(C)C(=CC[C@@H]4[C@@]5(C)C/C(=C/c6cccnc6)[C@H](O)C(C)(C)[C@@H]5CC[C@]43C)[C@H]12,9.88 µM,> 100 µM,6.35 µM,> 100 µM,27.6 µM,> 100 µM,,,,,
CC(=O)O[C@@H]1CC2C(C)(C)CCCC2(C)C2=C1C(=O)C(C(C)C)=CC2=O (some centres not stated),1.49 µM,7.31 µM,2.45 µM,12.9 µM,0.481 µM,1.93 µM,,,,,
O=C1C(Cl)=C(Nc2cccc(O)c2)C(=O)N1c1cc(Cl)c(Cl)cc1Cl,42.1 µM,> 100 µM,15.2 µM,31.6 µM,22.7 µM,55.9 µM,,,,,
CC(=O)[O-].CC(=O)[O-].[NH2-].[Pt+2].c1ccc2cnccc2c1,1.61 µM,24.7 µM,> 100 µM,> 100 µM,> 100 µM,> 100 µM,,,,,
C[C@@H]1COCCN1c1cc(C2(S(C)(=N)=O)CC2)nc(-c2ccnc3[nH]ccc23)n1 (some centres not stated),3.15 µM,19.5 µM,12.8 µM,74.2 µM,3.74 µM,21.8 µM,,,,,
COc1cc(/C=C/C(=O)c2sc(Nc3ccccc3)nc2C)ccc1O,,,,,,,,> 100,> 100,,

Structure (SMILES),GI50 [1],TGI [1],GI50 [2],TGI [2],GI50 [3],TGI [3],TGI [4] [µM],TGI [5] [µM],TGI [6] [µM],TGI [7] [µM],GI50 [7] [µM]
OCc1ccc(-c2nn(Cc3ccccc3)c3ccccc23)o1,11.1 µM and 12.4 µM,43.4 µM and 26.2 µM,21.8 µM and 16.6 µM,64.7 µM and 36 µM,17.2 µM and 18.7 µM,40.8 µM and 39.5 µM,,,,,
Cc1nc2sc(C(=O)Nc3ccccc3)c(N)c2cc1C(=O)/C=C/c1ccccc1,2.48 µM,8.2 µM,2.14 µM,5.55 µM,1.54 µM,3.73 µM,,,,,
CCCCN(Cc1ccc(F)cc1)c1ccc(CO)c(Cl)c1,1.27 µM,10.2 µM,13.8 µM,28.4 µM,17.6 µM,35.1 µM,,,,,
Cc1ccc(C(O)c2cnc(C)n2Cc2ccccc2)cc1 (configuration not stated),,,,> 100 µM,,> 100 µM,,,,> 100,
C=C1CC[C@@H]2[C@](C)(COC(C)=O)[C@H](OC(C)=O)CC[C@@]2(C)[C@@H]1CC(Nc1ccc(S(=O)(=O)Nc2nccc(C)n2)cc1)C1=CCOC1=O (some centres not stated),2.77 µM,8.33 µM,4.46 µM,15.7 µM,2.92 µM,10.4 µM,,,,,
NC(C(=O)[O-])C(=O)[O-].NC1CCCCC1N.[Pt+4],,,4.67 µM,> 100 µM,4.04 µM,> 100 µM,,,,> 100,7.47
Nc1nc2c(c(=O)[nH]1)CN(c1ccc(S(N)(=O)=O)cc1)CN2,,> 100 µM,,> 100 µM,,> 100 µM,,,,> 100,
CN(CCOc1ccc(C#N)cc1)CCOc1ccc(C#N)cc1,> 100 µM,> 100 µM,41.6 µM,> 100 µM,78.8 µM,> 100 µM,,,,,
CC(=O)n1c2ccccc2c2nc3nc(Oc4ccc(C)cc4)c4ccccc4c3cc21,,,,,,,> 100,> 100,> 100,,
C[C@@H]1CN(CC(=O)N2CC(C)(C)c3nc(CO)c(Cc4ccc(F)cc4)cc32)[C@@H](CN2CCOC[C@H]2C)CN1,17.2 µM,47.8 µM,58.5 µM,> 100 µM,37.1 µM,> 100 µM,,,,,
COc1ccc(-c2cn(-c3ccccc3)c(-c3ccccc3)n2)cc1OC,1.75 µM,20.2 µM,5.53 µM,24.7 µM,2.94 µM,12.5 µM,,,,,
COc1cc(Nc2nc(N[C@H]3CCCC[C@@H]3N)nc3cc[nH]c(=O)c23)cc(OC)c1,12.8 µM,30.2 µM,2.53 µM,20.8 µM,0.997 µM,2.6 µM,,,,,
CN(C)CCOc1ccc2c(c1)C/C(=C/c1ncc([N+](=O)[O-])n1C)C2=O,,32.8 µM,,18.3 µM,,11.5 µM,,,,16.8,
Cn1ccnc1C(=O)/C=C/c1ccc(CC(=O)Nc2ccccc2)cc1,5.23 µM,> 25 µM,3.29 µM,8.55 µM,4.3 µM,13.7 µM,,,,,
Cc1cc(C(C#N)c2ccc(Cl)cc2)c(Cl)cc1NC(=O)c1cc(I)cc(I)c1O (configuration not stated),19.1 µM and 15.2 µM,46.9 µM and 37 µM,3.18 µM and 11.7 µM,23 µM and 32.5 µM,12 µM and 18.8 µM,31.6 µM and 42 µM,,,,,
CCc1cc(O)c(Cl)c(C)c1Cl,,> 100 µM,,40.2 µM,,30.1 µM,,,,29.9,
COC(=O)CNC(=O)[C@@H](OC)[C@@H]1Cc2cc3cc(OC4CC(OC5CC(O)C(O)C(C)O5)C(O)C(C)O4)c(C)c(O)c3c(O)c2C(=O)[C@H]1OC1CC(OC2CC(OC3CC(C)(O)C(O)C(C)O3)C(O)C(C)O2)C(O)C(C)O1 (some centres not stated),0.256 µM,> 50 µM,0.234 µM,> 50 µM,0.166 µM,1.25 µM,,,,,
COc1c(N2CCN(CN3C(=O)C(=Nc4ccc(S(=O)(=O)Nc5ncccn5)cc4)c4ccccc43)C(C)C2)c(F)cc2c(=O)c(C(=O)O)cn(C3CC3)c12 (configuration not stated),,,> 50 µM,> 50 µM,> 50 µM,> 50 µM,,,,,
COc1cc(-c2cn(-c3ccc(Cl)cc3)c(C)c2C(=O)C(F)(F)F)cc(OC)c1OC,6.95 µM,> 100 µM,13.6 µM,> 100 µM,> 100 µM,> 100 µM,,,,,
COc1cc[nH]c1/C=C1\C(=O)Nc2ccc(F)c(I)c21,> 25 µM,> 25 µM,> 25 µM,> 25 µM,> 25 µM,> 25 µM,,,,,
COc1ccc2c3c(c(=O)n(C)c2c1OC)C=CC(C)(C)O3,,> 100 µM,,> 100 µM,,> 100 µM,,,,62.2,
CN(C)C(=S)N=Nc1c(O)[nH]c2ccccc12,0.404 µM,10.2 µM,0.566 µM,29.7 µM,0.757 µM,17.3 µM,,,,,
